Consider 2 compounds from patent US8426649B2, “Cyclopropenones and the photochemical generation of cyclic alkynes therefrom” (University of Georgia Research Foundation, Inc., priority 2009, dated 2013).

Data set [1] is described as follows: Rate measurements of cycloaddition of acetylenes with azides by UV spectroscopy in methanol. It counts as physicochemical. The following applies: 25±0.1° C. On the procedure: The rate measurements of cycloaddition of acetylenes 6c and 4a were conducted by UV spectroscopy at 25±0.1° C. A calculated amount of 0.25 M solutions of an azide required to achieve desired azide concentration (6×10^−4-1.5×10^−2 M) was added to a thermally equilibrated ca. 6×10^−5 M solution of acetylene in MeOH. Reactions were monitored by following the decay of the characteristic absorbance of acetylenes ca. 317 nm (FIG. 6). Consumption of starting material followed a first order equation well and the pseudo-first order rate constants were obtained by the by least-squares fitting of the data to a single exponential equation. The dependence of the observed rates on the concentration of azides was linear.
The rate measurements of the cycloaddition reaction of acetylene 6c with azides was conducted by UV spectroscopy following the decay of the 317 nm band of 6c (as shown in FIG. 6) in the photolysate at various concentrations of azides from about 0.5 mM to about 20 mM). […]
Rate measurements were performed using Carry-300 Bio UV-Vis spectrometer equipped with a thermostatable cell holder. […] A calculated amount of 0.25 M solutions of an azide required to achieve desired azide concentration (6×10^−4−1.5×10^−2M) was added at once. Reactions were monitored by following the decay of the characteristic absorbance of acetylene 6c at approximately 317 nm (FIG. 6). […]

Data set [2] in a line: Stability of cyclopropenones (shelf life, elevated temperature, solution). It counts as physicochemical. As to conditions: 3 days at 40° C. in aqueous and methanol solutions. The text has this: Diphenyl cyclopropenones, such as 5a-c, 18a-c, and 19, had long shelf lives, and could withstand elevated temperatures. […] (Poloukhtine & Popik (2003) J. Org. Chem. 68: 7833-7840). The cyclopropenones are also stable in solution in the absence of light.

On to “3,9-Dibutoxy-5,6-didehydro-11,12-dihydrodibenzo[a,e][8]annulen-2-yl [6c]”, for which the “Bimolecular rate constant, Rate” value was determined as 0.0343 M⁻¹ s⁻¹ in data set [1] (1-phenyl-2-azidopropane) and 0.0586 M⁻¹ s⁻¹ in data set [1] (n-butyl azide).

For `CCCCOc1ccc2c(c1)CCc1cc(OCCCC)ccc1-c1c-2c1=O` [5c, 4,9-dibutoxy-6,7-dihydro-1H-dibenzo[a,e]cyclopropa[c][8]annulen-1-one], in data set [2], the “Decomposition in solution in the absence of light” value is “no decomposition”.
